Tested on: FcγRIII signaling
Assay: FcγRIII signaling inhibitor assay: IgG2a-complex stimulated DC18 C10 cells, hTNFα promoter-luciferase reporter
Type: cell-based, mouse
Details: DC18 C10 cells stimulated with IgG2a complexes; inhibitor at its described IC50 concentration; FIG. 3
Description: Cells are transfected by electroporation at optimised conditions (200V, 960 pF) with a TNFα promoter—luciferase—TNFα 3′ end construct and plated in 10 ml of medium immediately after electroporation and purified by Lymphoprep the next day. 1×10^4 viable cells per well are plated in 96 well microtiter plates in 100 μl of medium each plus 250 μg/ml of geneticin (G418). Two days later 100 μl of fresh medium are added. Every second day 100 μl of medium are removed and substituted by 100 μl of fresh medium. Stable clones are selected by conventional cell culture methods and single cell cloning. […] The best responder is subjected to one round of further limited dilution cloning (single cell cloning) and named DC18 clone10 (=DC18 C10). This clone is selected for all further studies.
1×10^4 cells are seeded in 50 μl medium per well (Optiplate, Packard). Incubation with candidate compounds is done for 45 minutes prior to stimulation with 5 μg/ml of murine IgG of different subtypes complexed either with 10 μg/ml of DNP-BSA or 30 μg/ml of rabbit anti mouse Ig F(ab′)2 fragments. Stimulation is carried on for further 4 hours. Subsequently 13 μl of a 5 times concentrated reporter lysis buffer (Promega) are added and cells are lysed by freeze-(−80°) thaw cycle. For the readout 50 μl of luciferase substrate (Promega) are added and luciferase activity is measured in a MicroBetaJet (Wallac). […]

## O=c1cc(-c2ccc(O)cc2)oc2cc(O)cc(O)c12 [Apigenin]
  inhibition of IgG2a complexes-provoked luciferase induction (readout): inhibits IgG2a complexes-provoked luciferase induction

Reference: US20050181457A1, “FcyrIII signaling inhibitor assay” (priority 2002, published 2005)
